“Also recorded” adds a separate entry of the source.
Legend:
C57BL/6 female mice [1] = experiment: Recovery of ERG response (dark adaptation) after bleach, long-term treatment; type: in vivo, mouse; conditions: 500 cd·m^−2 for 3 min, 60 min dark adaptation
Experimental: Recovery of the ERG response (dark adaptation) following bleach was measured by monitoring the amplitude of a-waves after retinal exposure to intense constant illumination (500 cd·m^−2, ˜90% bleached rhodopsin) for 3 min. […] Retinoid kinetics in the eyes of each group were quantitatively evaluated during 60 min of dark adaptation after 3 min of bleaching at four subsequent time points of dark adaptation (0, 10, 30, and 60 min). […] Neither 9-cis-retinal nor 9-cis-retinyl esters were found in eyes from untreated groups (data not shown).
Six groups of mice were studied (FIG. 1B).
(§1) Two weeks after the last gavage with either, 9-cis-R-Ac, all-trans-R-Ac or vehicle, groups of 48 hr dark-adapted mice were analyzed for recovery of dark adaptation after light exposure, purified rhodopsin/opsin and retinoids in the eye and retinal morphology (FIG. 1C; Methods). Mice were exposed to light of intensity 500 cd·m^−2 that bleached ˜90% of rhodopsin, anesthetized and monitored by ERG for one hr to evaluate recovery of dark adaptation. Rhodopsin was purified and rhodopsin/opsin ratios was determined. Retinoid analyses were performed on dissected eyes removed at 0, 10, 30, and 60 min after exposure to the same amount of light. Mice used to evaluate retinal morphology were not exposed to photobleaching prior to analysis.
(§2) ERGs of anesthetized mice were recorded as previously reported.

[2] = Husbandry: activity, coat and skin appearance, body weight, tolerability
Experimental: Animals were evaluated weekly for activity and changes in coat and skin appearance.
For the long-term study (FIGS. 1B and 1C, Table 1), mice were obtained at 3 months of age and raised until 4 months of age before the experiments were initiated. Mice then were gavaged with 9-cis-R-Ac or vehicle solution once a month for different durations. Six groups of mice were studied (FIG. 1B). The first 3 groups (C0 C1 and C2, total n=35 for each group) were treated as controls and tested at 4, 10 and 14 months of age. The other 3 groups (N1, N2 and N3, n=35) were gavaged with 9-cis-R-Ac. Group N1 was gavaged for 6 months and tested at 10 months of age. Group N2 was gavaged with 9-cis-R-Ac for 10 months and tested at 14 months of age. Group N3, was gavaged with vehicle until 10 months of age and then received 9-cis-R-Ac monthly until testing at 14 months of age.

rhodopsin/opsin = biological target: T1, rhodopsin/opsin (Mus musculus, UniProt P15409); experiment: Purified rhodopsin/opsin analysis after long-term treatment; type: in vivo
T1 construct: from tissue; host or cells: whole eyes of wild-type C57BL/6 female mice
T1 sequence (P15409 whole entry): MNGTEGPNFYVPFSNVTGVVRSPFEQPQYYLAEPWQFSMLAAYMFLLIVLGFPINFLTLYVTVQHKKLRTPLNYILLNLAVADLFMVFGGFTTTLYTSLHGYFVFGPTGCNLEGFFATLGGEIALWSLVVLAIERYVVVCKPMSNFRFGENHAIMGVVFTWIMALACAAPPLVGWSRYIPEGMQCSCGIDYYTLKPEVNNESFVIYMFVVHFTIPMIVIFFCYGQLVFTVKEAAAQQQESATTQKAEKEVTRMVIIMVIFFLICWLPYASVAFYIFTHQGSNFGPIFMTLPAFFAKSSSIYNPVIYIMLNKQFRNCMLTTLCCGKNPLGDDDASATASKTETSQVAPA
Experimental: as §1
Rhodopsin purification was done under dim red light as previously described (Zhu, L., et al. J Biot Chem, 279, 53828-53839 (2004)). Purified anti-rhodopsin C terminus antibody 1D4 (MacKenzie, D., Arendt, A., Hargrave, P., McDowell, J. H. & Molday, R. S. Biochemistry, 23, 6544-6549 (1984)) was immobilized on CNBr-activated Sepharose 4B and a 4.6×12-mm column was packed with 2 mg of 1 D4 antibody/ml of Sepharose beads. Mouse whole eyes were homogenized in 137 mM NaCl, 5.4 mM Na2HPO4, 2.7 mM KCl and 1.8 mM KH2PO4 (pH 7.5) with a glass-to-glass homogenizer. Soluble proteins in the supernatant were removed by centrifugation at 14,000×g for 5 min and the pellet was solubilized in buffer containing 1% dodecyl-β-maltoside in 10 mM Bis-Tris propane (pH 7.5) containing 500 mM NaCl. The supernatant was cleared by centrifugation at 125,000×g for 20 min and loaded onto an antibody 1 D4-packed immunoaffinity column which was then thoroughly washed at a flow rate of 0.5 ml/min with 10 mM Bis-Tris propane (pH 7.5) containing 500 mM NaCl and 0.1% dodecyl-β-maltoside. […] Purified rhodopsin concentration was determined at 500 nm and total amount of opsin and rhodopsin at 280 nm with a Hewlett-Packard 8452A UV-visible spectrophotometer (Palczewski, K., Carruth, M. E., Adamus, G., McDowell, J. H. & Hargrave, P. A. Vision Research, 30, 1129-1137 (1990)).

C57BL/6 female mice [3] = experiment: Single-flash ERG after single dose treatment, bleach and dark adaptation; type: in vivo, mouse; conditions: single dose ~80 mg/kg gavage, 10-month-old mice, 20 min bleach at 500 cd·m^−2, 16 hr dark adaptation; vs control (a-waves P<0.01)
Experimental: Forty eight hr dark-adapted, 10-month-old mice were gavaged with a single dose (˜80 mg/kg body weight) of 9-cis-R-Ac or control vehicle and exposed to strong illumination for 20 min (500 cd·m^−2 that bleached ˜90% rhodopsin). Next, mice were dark-adapted for 16 hr after which various analyses were performed (FIG. 1A). […] To investigate whether 9-cis-retinal was utilized to form isorhodopsin and to assess how much unliganded opsin was present in the mouse eyes, rhodopsin, isorhodopsin and opsin were purified by immunoaffinity chromatography from treated and control groups of mice. […] After bleaching, 9-cis-retinal is bound to opsin even in the presence of a functional retinoid cycle that produces 11-cis-retinal to regenerate rhodopsin. Eyes from non-bleached or bleached and dark-adapted untreated mice contained a small amount of free opsin.
9-cis-R-Ac was prepared as previously described (Batten, M. L., et al. PLoS medicine 2, e333 (2005); Batten, M. L., et al. J Biol Chem 279, 10422-10432 (2004)). A dose of ˜80 mg/kg body weight of 9-cis-R-Ac in 150 μl vegetable oil was administered via gavage to each treated animal. […]
as §2

[4] = system: Lrat−/− and Rpe65−/− knockout mice; conditions: gastric gavage, Lrat−/− mice; cited from earlier work

SMILES: CC(=O)OC/C=C(C)/C=C/C=C(C)\C=C\C1=C(C)CCCC1(C)C [9-cis-R-Ac, 9-cis-retinyl acetate]
- recovery of ERG a-wave response (dark adaptation) after bleach (C57BL/6 female mice [1]; 10 months of age, N1 vs C1): significantly faster; also recorded: significantly higher; also recorded: restored the rate of recovery to that seen in 4-month-old mice
- recovery of ERG a-wave response (dark adaptation) after bleach (C57BL/6 female mice [1]; 14 months of age, treated (9-cis-R-Ac: N2 and N3) vs C2): significantly faster; also recorded: significantly higher recovery rate
- activity and changes in coat and skin appearance ([2]; evaluated weekly during the experimental period): No changes
- body weights ([2]; pre-treatment, 10 months and 14 months, control (C1-2) vs treated (N1-3)): no significant differences
- amounts of purified protein recovered (rhodopsin/opsin; 10-month-old treated mice, N1 versus C1): only slightly attenuated
- amounts of purified protein recovered (rhodopsin/opsin; 14 months of age, N2 and N3 vs C2): significantly lower
- regeneration ratios (rhodopsin/opsin) and total amounts of purified rhodopsin (rhodopsin/opsin; long-term treatment, 10 and 14 months of age, control vs treated): no significant differences
- functional a- and b-wave amplitudes, single-flash ERG (C57BL/6 female mice [3]): slightly increased
- beneficial effects compared with 9-cis-retinal [4]: same beneficial effects as 9-cis-retinal
